Relative viability data for 1 cell line are collected here from the supplement of paper PMC10307832.

Holding throughout (experiment): relative viability (nuclei count vs DMSO), 5 days (fraction); higher = more cells survive
Compound in the test “Vemurafenib + OSI-027”: CCCS(=O)(=O)Nc1ccc(F)c(C(=O)c2c[nH]c3ncc(-c4ccc(Cl)cc4)cc23)c1F [Vemurafenib] + COc1cccc2cc(-c3nc([C@H]4CC[C@H](C(=O)O)CC4)n4ncnc(N)c34)[nH]c12 [OSI-027] (partner 0.5 µM)
In short, it runs like this: (§1)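 Values are medians from duplicate plates. Each reflects relative viability, defined as the nuclei count of treated wells over that of vehicle wells. Lung cancer cell lines in 1536-well plates were pin-tool dosed one day after seeding with one drug alone or with a fixed anchor-drug dose plus five library-drug doses (not always all listed) in √10 steps, then fixed, stained and imaged at 4× after 5 days.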

Compound in the test “Vemurafenib + Vorinostat”: CCCS(=O)(=O)Nc1ccc(F)c(C(=O)c2c[nH]c3ncc(-c4ccc(Cl)cc4)cc23)c1F [Vemurafenib] + O=C(CCCCCCC(=O)Nc1ccccc1)NO [Vorinostat] (partner 1 µM)
The method, boiled down:
as §1

Compound in the test “Vemurafenib + Olaparib”: CCCS(=O)(=O)Nc1ccc(F)c(C(=O)c2c[nH]c3ncc(-c4ccc(Cl)cc4)cc23)c1F [Vemurafenib] + O=C(c1cc(Cc2n[nH]c(=O)c3ccccc23)ccc1F)N1CCN(C(=O)C2CC2)CC1 [Olaparib] (partner 8 µM)
In short, it runs like this: as §1

Compound in the test “OSI-027 + Linsitinib”: COc1cccc2cc(-c3nc([C@H]4CC[C@H](C(=O)O)CC4)n4ncnc(N)c34)[nH]c12 [OSI-027] + C[C@]1(O)C[C@@H](c2nc(-c3ccc4ccc(-c5ccccc5)nc4c3)c3c(N)nccn32)C1 [Linsitinib] (partner 1 µM)
In short, it runs like this:
as §1

Take UMC-11: the relative viability in the test with Vemurafenib + OSI-027 (first compound 0.03162 µM) came to 0.541; with Vemurafenib + OSI-027 (first compound 0.1 µM), 0.519; with Vemurafenib + OSI-027 (first compound 0.3162 µM) it was 0.411; with Vemurafenib + OSI-027 (first compound 1 µM) it was 0.44; with Vemurafenib + Vorinostat (first compound 0.03162 µM) it was 0.383; with Vemurafenib + Vorinostat (first compound 0.1 µM), 0.439. Besides, the relative viability is 0.576 in the test with Vemurafenib + Vorinostat (first compound 0.3162 µM); 0.37 in the test with Vemurafenib + Vorinostat (first compound 1 µM); 0.391 with Vemurafenib + Olaparib (first compound 0.03162 µM); 0.4 with Vemurafenib + Olaparib (first compound 0.1 µM); 0.392 with Vemurafenib + Olaparib (first compound 0.3162 µM); 0.375 with Vemurafenib + Olaparib (first compound 1 µM). Besides, the relative viability with OSI-027 + Linsitinib (first compound 0.01 µM) is 1; with OSI-027 + Linsitinib (first compound 0.03162 µM), 1.04; in the test with OSI-027 + Linsitinib (first compound 0.1 µM), 0.944; with OSI-027 + Linsitinib (first compound 0.3162 µM), 0.676; in the test with OSI-027 + Linsitinib (first compound 1 µM) it was 0.468.
